Experimental data: patent US12011445B2, “Prevention of pancreatic cell degeneration” (Melior Pharmaceuticals I, Inc., priority 2010, dated 2024)
Entries after “also recorded” stand apart in the source; their conditions may differ.

Columns and labels:
Db/Db mice [1] = experiment: In vivo Db/Db mouse study; conditions: for acute blood glucose response: upon study initiation and on weekly blood glucose testing
Description: Db/Db and Db/lean mice were obtained from Harlan at 6 weeks of age. Mice were housed 3 per cage and fed ad libitum normal rodent chow. Mice were kept on a 12 hr Light:dark cycle.
The study was initiated when mice reached an age of 8 weeks and their baseline blood glucose levels were greater than 200 mg/dl. Compound 102 was formulated in PBS: 2N HCl (99:1) at concentrations of 0.5, 1.5 and 5 mg/ml. Mice were dosed at volumes of 10 ml/kg to produce doses of 5, 15 and 50 mg/kg/dose. Mice were dosed twice per day at an 8 hr interval (8 am and 4 pm) during the light cycle.
For the acute blood glucose measurements, blood glucose levels were measured after the animals received their first dose of Compound 102. Blood glucose levels were measured two hours after this initial injection.
Mice were administered vehicle or drug (i.e., Compound 102) (5, 15, and 50 mg/kg) twice per day (bid) for the 28 days. Mouse weight and food intake were monitored daily. Food intake is reported as food intake (grams) per mouse per 24 hr period.

pancreatic β-cells = experiment: Pancreatic β-cell degeneration in db/db mice (insulin antibody staining of pancreas); format: in vivo
Description: Db/db mice were administered Compound 102 (100 mg/kg) for 60 days. At the end of the treatment period, pancreases were removed, post-fixed, sectioned and stained with insulin antibody to visualize pancreatic β-cells. Vehicle treated db/db mice expressed dramatically less insulin staining than lean control mice.

[2] = Western Diet study (weight, food intake, fat pads); format: in vivo, Male CD1/ICR mice
Excerpt: Male CD1/ICR mice were obtained from Harlan. The study was started when mice were 8 weeks of age. Prior to initiation of the study mice fasted for 24 hrs. Mice were fed “Western Diet” that was designed to approximate the “typical” human diet of North America and Europe (Research Diets; New Brunswick, N.J.; Western Diet composition). The Western Diet contained greater then 5 times more fat then normal chow. [table] Mice were weighed daily beginning from the start of the 24 hr fasting period. Food intake was monitored continuously. Mice were bled by retroorbital eyebleed on days 7, 14, 21 and 28 after the initiation of the study. On day of REB mice were dosed 1× with full dose 1 hr prior to bleed. Fat pads were dissected at the end of the study (day 31) weighed and frozen. The following fat pads were dissected: brown, inguinal, axial, mesenteric, renal and epidydimal. Data were averaged and analyzed by ANOVA followed by a post-hoc Tukey's test with a p value of less then 0.05 indicating a statistical difference.

Db/Db mice [3] = experiment: Blood glucose and serum insulin levels in db/db mice, 56 days; format: in vivo
Description: Blood glucose levels were measured once per week and serum insulin levels measured at the beginning and at the end of the study.

Zucker rats = experiment: In vivo Zucker rat study (oral glucose challenge); conditions: 30 mg/kg ip; glucose 1.5 g/kg; 30 and 270 minutes after administration
Description: Zucker rats and corresponding lean rats were supplied by Harlan. Rats were fed a normal diet, ad libitum, and kept on a 12 hr light/dark cycle. Rats were housed 3 per cage. At 12 weeks of age, Zucker rats were administered Compound 102 at a concentration of 30 mg/kg (ip). Blood glucose levels were measured 30 minutes after administration. Forty-five minutes after drug administration, animals were administered a glucose solution (1.5 g/kg) by oral gavage. Blood glucose levels were measured every 30 minutes after gavage for 4.5 hrs. There were 3 groups with 3 animals per group: 1) 3 Zucker leans (no drug; no glucose treatment); 2) Zucker vehicle treated group (glucose challenged and 3) Zucker Compound 102 treatment (30 mg/kg); glucose challenged.

leptin = experiment: Leptin levels in Western diet treated animals (ELISA); format: in vivo, mice; conditions: animals fed a western diet
Description: Blood from mice that were on western diet (Compound 102) were analyzed for leptin levels. Mice were bled by retroorbital eyebleed on days 7, 14, 21 and 28 after the initiation of the study. On day of REB mice were dosed once with full dose 1 hr prior to bleed. Leptin levels were determined by ELISA (R&D Systems) as per directions. Data are expressed as the average±SEM. Data were averaged and analyzed by ANOVA followed by a post-hoc Tukey's test with a p value of less then 0.05 indicating a statistical difference.

[4] = Oral glucose tolerance test; format: in vivo, mice; conditions: for blood glucose levels at all time points after administration: P<0.05
Description: Glucose was formulated in water at a concentration of 150 mg/ml and dosed at a volume of 10 ml/kg to produce a dose of 1.5 g/kg. Glucose was measured using the Ascensia II Elite XL glucose monitor ([…]). Measure glucose by taking a small (2 mm) section off the tip of the tail, bleed onto glucose test strip and measure. Data for each time point analyzed by ANOVA and post-hoc Tukey's test. A p value of less then 0.05 was used to indicate statistical significance. […]
In study 1, mice were dosed with Compound 102 and glucose as follows:
In study 2, mice were dosed with Compound 102 and glucose as follows.
Study 3 tested Compound 102 and was conducted as follows: […]

[5] = IP, twice/day, four weeks, 5, 15 and 50 mg/kg
[6] = chronic treatment, histology, vs untreated controls, FIG. 2
[7] = Western diet, fat pads dissected day 31
[8] = study 1, single administration, 30 mg/kg

Cc1cccc(Oc2cnc(=O)[nH]c2)c1 [Compound 102]
acute blood glucose response (Db/Db mice [1]; 15 mg/kg dose group): acute dose response | acute blood glucose response (Db/Db mice [1]; 50 mg/kg dose group): acute dose response | effect on animal weight gain (Db/Db mice [1]; [5]): dose dependent effect | effect on blood glucose levels (Db/Db mice [1]; [5]): dose dependent effect | blood glucose levels following acute administration (Db/Db mice [1]; measured two hours after first dose): reduce blood glucose levels | insulin staining of pancreas sections (pancreatic β-cells; 100 mg/kg for 60 days): significantly higher levels of insulin staining than vehicle treated mice | islet insulin content (pancreatic β-cells; [6]): increased insulin content | islet structure (pancreatic β-cells; [6]): better preserved islet structure | pancreatic β-cell degeneration (pancreatic β-cells; db/db mice, FIG. 2): prevents β-cell degeneration; also recorded: prevention of pancreatic β-cell degeneration | food intake ([2]; Western / high fat diet fed mice): not affected; also recorded: independent of an effect on food intake; also recorded: normal food intake | brown, axial, inguinal, renal and epipdydimal fat pad increases [2, 7]: significantly reduced | mesenteric fat pad levels [2, 7]: not | weight gain ([2]; Western diet, highest dose tested (30 mg/kg/day), absolute weight and weight change from day 0): significantly reduced | defecation ([2]; chronic administration, high fat diet): defecated normally | hyperactivity normally associated with the amphetamine class of weight-loss drugs ([2]; mouse, in vivo): did not display the hyperactivity | animals fed a western diet and treated, compared with normal diet (weight gain, food intake, fat pad development, leptin) ([2]; summary of Examples 2 and 3): do not look different from those fed a normal diet | weight change / weight-gain response ([2]; western (high fat) diet fed animals, chronic administration, dose not stated): significant alteration; also recorded: significantly inhibited | fat pad development ([2]; western diet fed animals): reduction in fat pad development | serum insulin levels (Db/Db mice [3]; 30 mg/kg daily for 56 days, beginning vs end of study, FIG. 1): significantly slowed the loss; also recorded: prevention of the loss of serum insulin levels | blood glucose levels (Db/Db mice [3]; 30 mg/kg daily for 56 days, measured once per week, FIG. 1): attenuated the progressive rise; also recorded: decrease in blood glucose | extent of serum insulin lowering associated with pancreatic β-cell loss (Db/Db mice [3]; db/db mice, compared among Compound 102, vehicle and rosiglitazone): do not exhibit the extent of serum insulin lowering | blood glucose levels after oral glucose administration (Zucker rats): reduced blood glucose levels at both time points | blood leptin levels (leptin): reduced leptin levels to those fed a normal diet | blood glucose levels produced by oral glucose administration [4, 8]: significantly attenuated | normal blood glucose levels (pre-glucose loading) [4, 8]: significantly decreased | time after drug administration at which significance was lost [4, 8]: 90 min | effect on blood glucose levels ([4]; study 2, increased dosing): more dramatic effect

O=c1ncc(Oc2cccc(Cl)c2)c[nH]1 [Compound 105]
baseline blood glucose levels ([4]; data not shown): significantly depressed | blood glucose levels ([4]; oral glucose tolerance test, overall statement): dramatic reductions | blood glucose levels at all time points after administration ([4]; single dose 2 mg/kg): significantly (P<0.05) reduced | blood glucose levels at all time points after administration ([4]; single dose 10 mg/kg): significantly (P<0.05) reduced
